ChEMBL document CHEMBL1127553, “Derivatives of a novel cyclopeptolide. 2. Synthesis, activity against multidrug resistance in CHO and KB cells in vitro, and structure-activity relationships” (1994)
Non-standard residues stand in square brackets, D forms with d. Residues, ends and D or L forms follow the SMILES beside them. *: point of attachment. NMeI = CC[C@H](C)[C@H](NC)C(=O)O; NMeD = CN[C@@H](CC(=O)O)C(=O)O; NMeV = CN[C@H](C(=O)O)C(C)C; Pip = O=C(O)[C@@H]1CCCCN1; dLac = C[C@@H](O)C(=O)O; Lac = C[C@H](O)C(=O)O; OtBu = CC(C)(C)O*

Tests used:
CHO [1] = assay: The sensitizing capacity for colchicine treatment of multi drug resistance (MDR) CHO cell at concentration 1.0(mg/L).; type: functional, Cricetulus griseus
CHO [2] = assay: The sensitizing capacity for colchicine treatment of multi drug resistance(MDR) in CHO cell at concentration 0.1(mg/L).; type: functional, Cricetulus griseus
CHO [3] = assay: Sensitization of colchicine treated parental (PAR)CHO cells, measured at concentration 0.1(mg/L); type: functional, Cricetulus griseus
CHO [4] = assay: The sensitizing capacity for colchicine treatment of parental (PAR)CHO cells at concentration 1.0 (mg/L); type: functional, Cricetulus griseus
KB [5] = assay: The sensitizing capacity of compound for colchicine treatment of multi drug resistance in KB cell was measured at concentration 3.0 (mg/L); type: functional, Homo sapiens
KB (human) = assay: The sensitizing capacity of compound for colchicine treatment of multi drug resistance in KB cell was measured at concentration 1.0(mg/L)
KB [6] = assay: The sensitizing capacity of compound for colchicine treatment of multi drug resistance in KB cell was measured at concentration 1.0(mg/L); type: functional, Homo sapiens
CHO [7] = assay: The sensitizing capacity of compound for colchicine treatment of parental (PAR)CHO cells was measured at concentration 0.1 (mg/L); type: functional, Cricetulus griseus
KB [8] = assay: The sensitizing capacity of compound for colchicine treatment of multi drug resistance in KB cell was measured at concentration 3.0(mg/L)

CC[C@@H](C)[C@H]1C(=O)NCC(=O)N(C)[C@@H](C(C)C)C(=O)N[C@@H](Cc2ccc(OC)cc2)C(=O)O[C@H](C)C(=O)N2CCCC[C@H]2C(=O)N(C)[C@@H](C(C)C)C(=O)N[C@@H](C(C)C)C(=O)N(C)[C@H](CC(=O)NC23CC4CC(CC(C4)C2)C3)C(=O)N(C)[C@@H]([C@@H](C)CC)C(=O)N1C
Activity (CHO [1]): 177
Activity (CHO [2]): 25
Activity (CHO [3]): 7.3
Activity (CHO [4]): 8.9
Activity (KB [5]): 3.7
Activity (KB (human)): 1.1

CC[C@H](C)[C@H]1C(=O)NCC(=O)N(C)[C@@H](C(C)C)C(=O)N[C@@H](Cc2ccc(OC)cc2)C(=O)O[C@@H](C)C(=O)N2CCCC[C@H]2C(=O)N(C)[C@@H](C(C)C)C(=O)N[C@@H](C(C)C)C(=O)N(C)[C@@H](CC(=O)OC(C)(C)C)C(=O)N(C)[C@@H]([C@@H](C)CC)C(=O)N1C (cyclo(G[NMeV]Y(Me)[Lac][Pip][NMeV]V[NMeD](OtBu)[NMeI][NMeI]))
Activity (CHO [1]): 333
Activity (CHO [2]): 66
Activity (CHO [3]): 5.4
Activity (CHO [4]): 7
Activity (KB [6]): 3.6
Activity (KB [5]): 196

CC[C@@H](C)[C@H]1C(=O)NCC(=O)N(C)[C@@H](C(C)C)C(=O)N[C@@H](Cc2ccc(OC)cc2)C(=O)O[C@H](C)C(=O)N2CCCC[C@H]2C(=O)N(C)[C@@H](C(C)C)C(=O)N[C@@H](C(C)C)C(=O)N(C)[C@H](CC(=O)N[C@H](C(=O)OC(C)(C)C)C(C)C)C(=O)N(C)[C@@H]([C@@H](C)CC)C(=O)N1C
Activity (CHO [1]): 187
Activity (CHO [2]): 15
Activity (CHO [3]): 6
Activity (CHO [4]): 8.5
Activity (KB [6]): 1.2
Activity (KB [5]): 124

CC[C@@H](C)[C@H]1C(=O)NCC(=O)N(C)[C@@H](C(C)C)C(=O)N[C@@H](Cc2ccc(OC)cc2)C(=O)O[C@H](C)C(=O)N2CCCC[C@H]2C(=O)N(C)[C@@H](C(C)C)C(=O)N[C@@H](C(C)C)C(=O)N(C)[C@H](CC(=O)O)C(=O)N(C)[C@@H]([C@@H](C)CC)C(=O)N1C
Activity (CHO [1]): 1.8
Activity (CHO [2]): 1.1
Activity (CHO [7]): 2.2
Activity (CHO [4]): 7.6

CC[C@@H](C)[C@H]1C(=O)NCC(=O)N(C)[C@@H](C(C)C)C(=O)N[C@@H](Cc2ccc(OC)cc2)C(=O)O[C@H](C)C(=O)N2CCCC[C@H]2C(=O)N(C)[C@@H](C(C)C)C(=O)N[C@@H](C(C)C)C(=O)N(C)[C@H](CC(=O)NCC(C)(C)C)C(=O)N(C)[C@@H]([C@@H](C)CC)C(=O)N1C
Activity (CHO [1]): 155
Activity (CHO [2]): 11
Activity (CHO [3]): 7.4
Activity (CHO [4]): 12
Activity (KB [6]): 1.1
Activity (KB [5]): 2.3

CC[C@@H](C)[C@H]1C(=O)NCC(=O)N(C)[C@@H](C(C)C)C(=O)N[C@@H](Cc2ccc(OC)cc2)C(=O)O[C@@H](C)C(=O)N2CCCC[C@H]2C(=O)N(C)[C@@H](C(C)C)C(=O)N[C@@H](C(C)C)C(=O)N(C)[C@H](CC(=O)NCC(C)(C)C)C(=O)N(C)[C@@H]([C@@H](C)CC)C(=O)N1C
Activity (CHO [1]): 358
Activity (CHO [2]): 95
Activity (CHO [3]): 8
Activity (CHO [4]): 13
Activity (KB [6]): 2.2
Activity (KB [5]): 82

CC[C@H](C)[C@H]1C(=O)NCC(=O)N(C)[C@@H](C(C)C)C(=O)N[C@@H](Cc2ccc(OC)cc2)C(=O)O[C@H](C)C(=O)N2CCCC[C@H]2C(=O)N(C)[C@@H](C(C)C)C(=O)N[C@@H](C(C)C)C(=O)N(C)[C@@H](CC(=O)OC(C)(C)C)C(=O)N(C)[C@@H]([C@@H](C)CC)C(=O)N1C (cyclo(G[NMeV]Y(Me)[dLac][Pip][NMeV]V[NMeD](OtBu)[NMeI][NMeI]))
Activity (CHO [1]): 135
Activity (CHO [2]): 3.8
Activity (CHO [3]): 4.6
Activity (CHO [4]): 8.6
Activity (KB [6]): 1.1
Chemosensitizing activity (KB [8]): 1.8

CC[C@@H](C)[C@H]1C(=O)NCC(=O)N(C)[C@@H](C(C)C)C(=O)N[C@@H](Cc2ccc(OC)cc2)C(=O)O[C@@H](C)C(=O)N2CCCC[C@H]2C(=O)N(C)[C@@H](C(C)C)C(=O)N[C@@H](C(C)C)C(=O)N(C)[C@H](CC(=O)NC(C)(C)C)C(=O)N(C)[C@@H]([C@@H](C)CC)C(=O)N1C
Activity (CHO [1]): 343
Activity (CHO [2]): 70
Activity (CHO [3]): 8.4
Activity (CHO [4]): 12
Activity (KB [6]): 1.5
Activity (KB [5]): 113

CC[C@H](C)[C@H]1C(=O)NCC(=O)N(C)[C@@H](C(C)C)C(=O)N[C@@H](Cc2ccc(OC)cc2)C(=O)O[C@@H](C)C(=O)N2CCCC[C@H]2C(=O)N(C)[C@@H](C(C)C)C(=O)N[C@@H](C(C)C)C(=O)N(C)[C@@H](CC(=O)OCC23CC4CC(CC(C4)C2)C3)C(=O)N(C)[C@@H]([C@@H](C)CC)C(=O)N1C
Activity (CHO [1]): 78
Activity (CHO [2]): 1.4
Activity (CHO [3]): 6.9
Activity (CHO [4]): 7.4
Activity (KB [6]): 1.3
Activity (KB [5]): 3

CC[C@@H](C)[C@H]1C(=O)NCC(=O)N(C)[C@@H](C(C)C)C(=O)N[C@@H](Cc2ccc(OC)cc2)C(=O)O[C@@H](C)C(=O)N2CCCC[C@H]2C(=O)N(C)[C@@H](C(C)C)C(=O)N[C@@H](C(C)C)C(=O)N(C)[C@H](CC(=O)NC23CC4CC(CC(C4)C2)C3)C(=O)N(C)[C@@H]([C@@H](C)CC)C(=O)N1C
Activity (CHO [1]): 290
Activity (CHO [2]): 92
Activity (CHO [3]): 7.7
Activity (CHO [4]): 8
Activity (KB [6]): 3.7
Activity (KB [5]): 772

CC[C@H](C)[C@H]1C(=O)NCC(=O)N(C)[C@@H](C(C)C)C(=O)N[C@@H](Cc2ccc(OC)cc2)C(=O)O[C@@H](C)C(=O)N2CCCC[C@H]2C(=O)N(C)[C@@H](C(C)C)C(=O)N[C@@H](C(C)C)C(=O)N(C)[C@@H](CC(=O)OCCC(C)(C)C)C(=O)N(C)[C@@H]([C@@H](C)CC)C(=O)N1C
Activity (CHO [1]): 292
Activity (CHO [2]): 17
Activity (CHO [3]): 6.7
Activity (CHO [4]): 7.9
Activity (KB [6]): 1.7
Activity (KB [5]): 25

CC[C@@H](C)[C@H]1C(=O)NCC(=O)N(C)[C@@H](C(C)C)C(=O)N[C@@H](Cc2ccc(OC)cc2)C(=O)O[C@@H](C)C(=O)N2CCCC[C@H]2C(=O)N(C)[C@@H](C(C)C)C(=O)N[C@@H](C(C)C)C(=O)N(C)[C@H](CC(=O)NCCC(C)C)C(=O)N(C)[C@@H]([C@@H](C)CC)C(=O)N1C
Activity (CHO [1]): 273
Activity (CHO [2]): 83
Activity (CHO [3]): 7.7
Activity (CHO [4]): 8.6
Activity (KB [6]): 1.5
Activity (KB [5]): 54

CC[C@H](C)[C@H]1C(=O)NCC(=O)N(C)[C@@H](C(C)C)C(=O)N[C@@H](Cc2ccc(OC)cc2)C(=O)O[C@H](C)C(=O)N2CCCC[C@H]2C(=O)N(C)[C@@H](C(C)C)C(=O)N[C@@H](C(C)C)C(=O)N(C)[C@@H](CC(=O)NCCC(C)C)C(=O)N(C)[C@@H]([C@@H](C)CC)C(=O)N1C
Activity (CHO [1]): 126
Activity (CHO [2]): 3.7
Activity (CHO [3]): 5.8
Activity (CHO [4]): 8.1
Activity (KB [6]): 1
Activity (KB [5]): 1.1
